Data set [1] has as its system NF-κB. Description: NF-κB luciferase reporter assay, TNF-α induced (Test Example 1). As to conditions: Homo sapiens; HEK293, NF-κB luciferase vector, 10 ng/ml TNF-α, 1 uM compound; FIG. 1; read-out: NF-κB activity inhibited (reporter activity). It is filed as cell-based. The procedure: The cultured human-derived HEK293 cell line was transfected with the NF-κB luciferase (reporter) vector, and treated with 10 ng/ml of TNF-α to induce activation of the NF-κB signaling pathway. In addition, during the above process, 1 uM of each of 9 kinds of compounds represented by [Chemical Formula 1] was treated to measure the inhibitory effect of the NF-κB-mediated inflammatory response regulatory pathway. Specifically, the relative expression level of NF-κB was confirmed.

Data set [2] concerns mice (LPS-induced sepsis). Description: LPS-induced sepsis (cytokine storm-like) model (Test Example 7). Type of data set: in vivo. As to conditions: LPS intraperitoneal, drug intravenous; FIG. 11B. The procedure: Since there were no disease model animals leading to death from a cytokine storm caused by coronaviruses, particularly Sars-Cov2, the present inventors used an acute sepsis model in which an acute inflammatory response is induced to cause the cytokine storm problem and confirmed inhibition of the cytokine storm, the possibility of treating severe acute respiratory syndrome coronavirus 2 infection disease and the possibility of treating sepsis.
An experiment was performed by treating LPS on an animal model (cytokine storm-like model) of sepsis (death). Mice were intraperitoneally administered with LPS for induction of sepsis and injected intravenously with the drug (Example 4), and then blood was collected at 3, 6, and 12 hours. The survival rate was confirmed for 48 hours to observe mortality due to sepsis.

Data set [3] relates to NF-κB. Description: NF-κB luciferase assay, luminometer (Test Example 3). Type of data set: cell-based, human. As to conditions: HEK293, 1 uM compound, 10 ng/ml TNF-α; FIG. 3. As for the experimental part:
HEK293 cell line, a human-derived embryonic kidney cell line, was cultured, transfected with NF-κB luciferase vector, treated with 1 uM of the compound, and then treated with 10 ng/ml of TNF-α to induce the NF-κB pathway. Luciferase assay method was performed to quantitatively measure the effect on NF-κB gene expression using a luminometer.

The test system of data set [4] is mice (oxazolone-induced skin inflammation). The data set is described as follows: Oxazolone-induced skin inflammation in mouse ears (Test Example 4): naked eye, H&E staining, immune cell count. It is filed as in vivo. As to conditions: compound 20 μl at 500 nM, 5 applications; for number of inflammatory immune cells in skin: counted from H&E pictures, FIG. 6; for skin condition of ears confirmed with naked eye / thickness of the entire skin and epithelium (H&E staining): oxazolone on mouse ears; for skin condition of ears confirmed with naked eye: FIG. 4; for thickness of the entire skin and epithelium (H&E staining): FIG. 5. As for the experimental part: 3% Oxazolone (150 μl) was applied to the abdominal skin of 6-week-old mice to induce an immune response, and 0.5% diluted oxazolone (20 μl) was applied to the ears of mice a total of 5 times at intervals of one day to induce an inflammatory response. After 30 minutes of oxazolone application, Example 4 (CAP-1042) or Example 12 (CAP-1047) was applied a total of 5 times in an amount of 20 μl each at a concentration of 500 nM each.
The number of mice in each experimental group was maintained at 10 or more, and the experiment was repeated twice in total.
Specifically, after H&E staining (FIG. 5), photographs of at least 10 different parts of each sample were taken evenly under a microscope. Then, the number of inflammatory immune cells stained in dark red was directly counted from the pictures taken, and the average value was calculated.

For data set [5], the system named is p100 protein. The data set is described as follows: Western blotting of NF-κB non-canonical pathway, induced with LIGHT (Test Example 5). Type of data set: cell-based. As to conditions: LIGHT induction, own compound used = Example 4 (1042), b448, FIG. 8. An excerpt:
(§1) The NF-κB signaling pathway is largely divided into canonical and non-canonical pathways. In the canonical pathway, when an inflammatory response is induced by treatment with TNF-α, the amount of P-p65 protein, which is a phosphorylated product of p65 protein, increases and migrates into the nucleus, inducing an inflammatory response. In the non-canonical pathway, when an inflammatory response is induced with a LIGHT compound that activates the non-canonical NF-κB pathway, the p100 protein is converted into p52 protein through processing and migrates into the nucleus to induce an inflammatory response. […] Specifically, in order to confirm whether the activation of NF-κB signaling pathways (canonical and non-canonical pathways) is regulated, the regulation of phosphorylated p65 and p100 proteins, which are major signal regulating molecules, was confirmed using Western blotting. In the present experiment, the compound of Example 4 (1042) was used as the compound according to the present disclosure.

Data set [6] has as its system P-p65 protein. The data set is described as follows: Western blotting of NF-κB canonical pathway, induced with TNF-α (Test Example 5). It is filed as cell-based. As to conditions: TNFα induction, own compound used = Example 4 (1042), b448, FIG. 8.
Text: as §1
(In western blotting, separated proteins are transferred to a membrane and probed.)

For `Cc1ccc2oc(C(=O)N/N=C/c3c(Cl)[nH]c4ccccc34)cc2c1` [Example 1, (E)-N′-[(2-chloro-1H-indol-3-yl)methylene]-5-methylbenzofuran-2-carbohydrazide], in data set [1], the inhibition at 1 µM was at least 50%.
Turning to `CCOCCn1c(Cl)c(/C=N/NC(=O)c2cc3cc(C)ccc3o2)c2ccccc21` [Example 4, (E)-N′-[(2-chloro-1-(2-ethoxyethyl)-1H-indol-3-yl]methylene}-5-methylbenzofuran-2-carbohydrazide], in data set [2], the “mortality due to sepsis (survival rate after 48 hours)” value is given as “significantly reduced mortality due to sepsis”. In addition, the “expression amount of the NF-κB gene (luciferase)” value (shortened to “expression amount”) in data set [3] is “significantly decreased”. Also, in data set [4], the “number of inflammatory immune cells in skin” value is on record as “reduced the number of immune cells induced by the inflammatory reaction to the extent very similar to that of the normal case treated with ethanol”; the “skin condition of ears confirmed with naked eye” value is listed as “skin conditions very similar to those of normal animals treated with ethanol”; the “thickness of the entire skin and epithelium (H&E staining)” value was “reduced to the extent very similar to that of the normal skin treated with ethanol”. Also, the inhibition at 1 µM in data set [1] was at least 50%.
Consider `CCOCCn1c(Cl)c(/C=N/NC(=O)c2cc3cc(C)ccc3o2)c2cc(OC)ccc21` [Example 8, (E)-N′-[(2-chloro-1-(2-ethoxyethyl)-5-methoxy-1H-indol-3-yl]methylene}-5-methylbenzofuran-2-carbohydrazide], for which, in data set [1], the inhibition at 1 µM was at least 50%.
In the case of `CCOCCn1c(Cl)c(/C=N/NC(=O)c2cc3cc(C)ccc3o2)c2ccc(OC)cc21` [Example 9, (E)-N′-[(2-chloro-1-(2-ethoxyethyl)-6-methoxy-1H-indol-3-yl]methylene}-5-methylbenzofuran-2-carbohydrazide], the inhibition at 1 µM in data set [1] was at least 50%.
In the case of `CCOCCn1c(Cl)c(/C=N/NC(=O)c2cc3cc(C)ccc3o2)c2cc(F)ccc21` [Example 10, (E)-N′-[(2-chloro-1-(2-ethoxyethyl)-5-fluoro-1H-indol-3-yl]methylene}-5-methylbenzofuran-2-carbohydrazide], the “expression amount” value in data set [3] was “significantly decreased”. Also, the inhibition at 1 µM in data set [1] is at least 50%.
On to `CCOCCn1c(Cl)c(/C=N/NC(=O)c2cc3cc(C)ccc3o2)c2cc(Cl)ccc21` [Example 11, (E)-N′-[(2,5-dichloro-1-(2-ethoxyethyl)-1H-indol-3-yl]methylene}-5-methylbenzofuran-2-carbohydrazide], for which the “expression amount” value in data set [3] is on record as “significantly decreased”. For the same molecule, the inhibition at 1 µM in data set [1] was at least 50%.
Consider `CCOCCn1c(Cl)c(/C=N/NC(=O)c2cc3cc(C)ccc3o2)c2cc(OC(F)(F)F)ccc21` [Example 12, (E)-N′-[(2-chloro-1-(2-ethoxyethyl)-5-(trifluoromethoxy)-1H-indol-3-yl]methylene}-5-methylbenzofuran-2-carbohydrazide], for which the “expression amount” value in data set [3] is on record as “significantly decreased”. Also, in data set [4], the “skin condition of ears confirmed with naked eye” value is listed as “skin conditions very similar to those of normal animals treated with ethanol”; the “thickness of the entire skin and epithelium (H&E staining)” value is “reduced to the extent very similar to that of the normal skin treated with ethanol”. In data set [1], the inhibition at 1 µM is at least 50%.
As to `CCOCCn1c(Cl)c(/C=N/NC(=O)c2cc3cc(C)ccc3o2)c2cc(C)ccc21` [Example 13, (E)-N′-[(2-chloro-1-(2-ethoxyethyl)-5-methyl-1H-indol-3-yl]methylene}-5-methylbenzofuran-2-carbohydrazide], the “expression amount” value in data set [3] is given as “significantly decreased”. In data set [1], the inhibition at 1 µM was at least 50%.
As to `CCOC(=O)Cn1c(C)c(/C=N/NC(=O)c2cc3cc(C)ccc3o2)c2ccccc21` [Example 21, ethyl (E)-2-(2-methyl-3-((2-(5-methylbenzofuran-2-carbonyl)hydrazinylidene)methyl)-1H-indol-1-yl)acetate], the melting point – broadly, the temperature of the solid-liquid transition – came to 186 °C.
Turning to `CCOC(=O)Cn1c(C)c(/C=N/NC(=O)c2cc3cc(Cl)ccc3o2)c2ccccc21` [Example 22], the melting point turned out to be 214 °C.
`COC(=O)Cn1c(Cl)c(/C=N/NC(=O)c2cc3cc(C)ccc3o2)c2ccccc21` [Example 23, methyl (E)-2-(2-chloro-3-((2-(5-methylbenzofuran-2-carbonyl)hydrazinylidene)methyl)-1H-indol-1-yl)acetate]: the melting point stood at 212 °C. Further, the inhibition at 1 µM in data set [1] was at least 50%.
As to `NC(=O)Nc1sc(-c2ccc(F)cc2)cc1C(N)=O` [TPCA1], the “inhibition of non-canonical NF-κB pathway (p100 to p52 processing)” value in data set [5] is on record as “not on the non-canonical pathway”. Further, the “inhibition of canonical NF-κB pathway (P-p65)” value in data set [6] was “acts on the canonical pathway”.
In the case of “(E)-N′-[(2-chloro-1-(2-methoxyethyl)-1H-indol-3-yl]methylene}-5-methylbenzofuran-2-carbohydrazide [Example 7]”, the “number of inflammatory immune cells in skin” value in data set [4] is given as “reduced the number of immune cells induced by the inflammatory reaction to the extent very similar to that of the normal case treated with ethanol”.

For the origin of these results see patent US20230293487A1, “ANTI-INFLAMMATORY COMPOSITION COMPRISING BENZOFURAN-BASED N-ACYLHYDRAZONE DERIVATIVES” (KOREA RESEARCH INSTITUTE OF BIOSCIENCE AND BIOTECHNOLOGY, priority 2020, published 2023).
